Experimental data: patent publication US10450263B2, “Benzo annulenes as antiviral agents” (Southern Research Institute, priority 2017, dated 2019)
Read-outs that look alike come from different tables or passages of the source.

Experiments:
Chikungunya virus = assay: Evaluation of antiviral activity against Chikungunya virus (EC90); type: cell-based
From the text: EC90 refers to the concentration of the compound that is required for 90% antagonism or inhibition of CHIKV. EC90 also refers to the concentration of a substance that is required for 90% antagonism or inhibition of CHIKV in vivo.
(§1) The compounds below in Table 1 were synthesized with methods identical or analogous to those described herein. The requisite starting materials were commercially available, described in the literature, or readily synthesized by one skilled in the art of organic synthesis.

[1] = CC50 reported alongside the CHIKV antiviral assay (cytotoxicity); type: cell-based; conditions: cell line not given
From the text: as §1

[2] = read-out: EC90 (μM) CHIKV, concentration required for 90% inhibition of CHIKV
[3] = Chikungunya virus, read-out: EC90 (μM) CHIKV, concentration required for 90% inhibition of CHIKV

COc1cc2c(cc1NC(=O)c1cnc(C)cn1)CCCCC2 [Compound 39, N-(3-Methoxy-6,7,8,9-tetrahydro-5H-benzo[7]annulen-2-yl)-5-methylpyrazine-2-carboxamide]
EC90 (Chikungunya virus; [2]): > 30 µM
CC50 [1]: > 30 µM

CCn1cc(C(=O)Nc2cc3c(cc2OC)CCCCC3)c(C(F)(F)F)n1 [Compound 45, 1-Ethyl-N-(3-methoxy-6,7,8,9-tetrahydro-5H-benzo[7]annulen-2-yl)-3-(trifluoromethyl)-1H-pyrazole-4-carboxamide]
EC90 (Chikungunya virus; [3]): 2.95 µM
CC50 [1]: 34.5 µM

CC(C)(C)c1ccc(C(=O)Nc2cc3c(cc2CO)CCCCC3)cc1 [Compound 29]
EC90 (Chikungunya virus; [3]): > 10 µM
CC50 [1]: > 30 µM

COc1cc2c(cc1NC(=O)c1cc(C)n(C(C)(C)C)n1)CCCCC2 [Compound 61]
EC90 (Chikungunya virus; [3]): 5.64 µM
CC50 [1]: > 30 µM

CC(C)(C)c1ccc(C(=O)Nc2ccc3c(c2OC(F)(F)F)CCCCC3)cc1 [Compound 87, 4-(tert-butyl)-N-(1-(trifluoromethoxy)-6,7,8,9-tetrahydro-5H-benzo[7]annulen-2-yl)benzamide]
EC90 (Chikungunya virus; [3]): 19.5 µM
CC50 [1]: > 30 µM

COc1cc2c(cc1NC(=O)c1ccc(C(C)(C)C)o1)CCCCC2 [Compound 37, 5-(tert-Butyl)-N-(3-methoxy-6,7,8,9-tetrahydro-5H-benzo[7]annulen-2-yl)furan-2-carboxamide]
EC90 (Chikungunya virus; [3]): 23.2 µM
CC50 [1]: > 30 µM

COc1cc2c(cc1NC(=O)c1cc(-c3ccccc3)on1)CCCCC2 [Compound 36, N-(3-methoxy-6,7,8,9-tetrahydro-5H-benzo[7]annulen-2-yl)-5-phenylisoxazole-3-carboxamide]
EC90 (Chikungunya virus; [3]): 9 µM
CC50 [1]: > 30 µM

COc1cc2c(cc1NC(=O)Cc1ccc(C(C)(C)C)cc1)CCCCC2 [Compound 54]
EC90 (Chikungunya virus; [3]): 42.9 µM
CC50 [1]: > 30 µM

COc1cc2c(cc1NC(=O)c1ccc(C(F)(F)F)cc1)CCCCC2 [Compound 74, N-(3-methoxy-6,7,8,9-tetrahydro-5H-benzo[7]annulen-2-yl)-4-(trifluoromethyl)benzamide]
EC90 (Chikungunya virus; [3]): 7.4 µM
CC50 [1]: > 30 µM

COc1cc2c(cc1NC(=O)c1ccc(C(C)(C)C(F)(F)F)cc1)CCCCC2 [Compound 52, N-(3-methoxy-6,7,8,9-tetrahydro-5H-benzo[7]annulen-2-yl)-4-(1,1,1-trifluoro-2-methylpropan-2-yl)benzamide]
EC90 (Chikungunya virus; [3]): 3.47 µM
CC50 [1]: 19.1 µM

COc1cc2c(cc1NC(=O)c1ccccc1)CCCCC2 [Compound 83, N-(3-methoxy-6,7,8,9-tetrahydro-5H-benzo[7]annulen-2-yl)benzamide]
EC90 (Chikungunya virus; [3]): > 10 µM
CC50 [1]: > 30 µM

COc1cc2c(cc1NC(=O)c1cccc(C(C)(C)C)c1)CCCCC2 [Compound 41, 3-(tert-Butyl)-N-(3-methoxy-6,7,8,9-tetrahydro-5H-benzo[7]annulen-2-yl)benzamide]
EC90 (Chikungunya virus; [3]): 34.1 µM
CC50 [1]: > 30 µM

CCn1nc(C(=O)Nc2cc3c(cc2OC)CCCCC3)cc1C [Compound 31, 1-Ethyl-N-(3-methoxy-6,7,8,9-tetrahydro-5H-benzo[7]annulen-2-yl)-5-methyl-1H-pyrazole-3-carboxamide]
EC90 (Chikungunya virus; [3]): 0.79 µM
CC50 [1]: > 30 µM

COc1cc2c(cc1NC(=O)c1ccc(C(C)(C)C)cc1)CCCC(=O)N2C(C)C [Compound 63, 4-(tert-butyl)-N-(1-isopropyl-8-methoxy-2-oxo-2,3,4,5-tetrahydro-1H-benzo[b]azepin-7-yl)benzamide]
EC90 (Chikungunya virus; [3]): > 30 µM
CC50 [1]: > 30 µM

CC(C)(C)c1ccc(C(=O)Nc2cc3c(cc2C#N)CCCCC3)cc1 [Compound 12, 4-(tert-Butyl)-N-(3-cyano-6,7,8,9-tetrahydro-5H-benzo[7]annulen-2-yl)benzamide]
EC90 (Chikungunya virus; [3]): 4.4 µM
CC50 [1]: 17 µM

CC(C)(C)c1ccc(C(=O)Nc2cc3c(cc2OCc2ccc(C(F)(F)F)cc2)CCCCC3)cc1 [Compound 17, 4-(tert-Butyl)-N-(3-((4-(trifluoromethyl)benzyl)oxy)-6,7,8,9-tetrahydro-5H-benzo[7]annulen-2-yl)benzamide]
EC90 (Chikungunya virus; [3]): > 30 µM
CC50 [1]: > 30 µM

CCCc1ccc(C(=O)Nc2cc3c(cc2OC)CCCCC3)cc1 [Compound 57, N-(3-methoxy-6,7,8,9-tetrahydro-5H-benzo[7]annulen-2-yl)-4-propylbenzamide]
EC90 (Chikungunya virus; [3]): > 10 µM
CC50 [1]: > 30 µM

COc1cc2c(cc1NC(=O)c1ccc(C(C)(C)CO)cc1)CCCCC2 [Compound 47]
EC90 (Chikungunya virus; [3]): 7.1 µM
CC50 [1]: 96.3 µM

CC(C)(C)c1ccc(C(=O)Nc2cc3c(cc2OC(F)(F)F)CCCCC3)cc1 [Compound 13, 4-(tert-butyl)-N-(3-(trifluoromethoxy)-6,7,8,9-tetrahydro-5H-benzo[7]annulen-2-yl)benzamide]
EC90 (Chikungunya virus; [3]): 13.7 µM
CC50 [1]: > 25 µM

COc1cc2c(cc1NC(=O)c1cnc(C(C)(C)C)nc1)CCCCC2 [Compound 49, 2-(tert-Butyl)-N-(3-methoxy-6,7,8,9-tetrahydro-5H-benzo[7]annulen-2-yl)pyrimidine-5-carboxamide]
EC90 (Chikungunya virus; [3]): 2.99 µM
CC50 [1]: 37.6 µM

COc1cc2c(cc1NC(=O)c1ccc3nonc3c1)CCCCC2 [Compound 40, N-(3-Methoxy-6,7,8,9-tetrahydro-5H-benzo[7]annulen-2-yl)benzo[c][1,2,5]oxadiazole-5-carboxamide]
EC90 (Chikungunya virus; [3]): > 30 µM
CC50 [1]: > 30 µM

CC(C)(C)c1ncc(C(=O)Nc2ccc3c(c2)CCCCC3)s1 [Compound 25, 2-(tert-butyl)-N-(6,7,8,9-tetrahydro-5H-benzo[7]annulen-2-yl)thiazole-5-carboxamide]
EC90 (Chikungunya virus; [3]): 22.6 µM
CC50 [1]: 15.7 µM

COc1cc2c(cc1NC(=O)c1cnc(C)cn1)CCCCC2 [Compound 81, N-(3-methoxy-6,7,8,9-tetrahydro-5H-benzo[7]annulen-2-yl)-5-methylpyrazine-2-carboxamide]
EC90 (Chikungunya virus; [2]): > 10 µM
CC50 [1]: > 30 µM

COc1cc2c(cc1NC(=O)c1ccc(C(C)(C)O)cc1)CCCCC2 [Compound 46, 4-(2-Hydroxypropan-2-yl)-N-(3-methoxy-6,7,8,9-Tetrahydro-5H-benzo[7]annulen-2-yl)benzamide]
EC90 (Chikungunya virus; [3]): 2.45 µM
CC50 [1]: 79.2 µM

COc1cc2c(cc1NC(=O)c1ccc(C(O)(C(F)(F)F)C(F)(F)F)cc1)CCCCC2 [Compound 48, 4-(1,1,1,3,3,3-Hexafluoro-2-hydroxypropan-2-yl)-N-(3-methoxy-6,7,8,9-tetrahydro-5H-benzo[7]annulen-2-yl)benzamide]
EC90 (Chikungunya virus; [3]): 2.8 µM
CC50 [1]: 28.9 µM

COc1cc2c(cc1NC(=O)c1ccc(-c3ccccn3)cc1)CCCCC2 [Compound 67, N-(3-Methoxy-6,7,8,9-tetrahydro-5H-benzo[7]annulen-2-yl)-4-(pyridin-2-yl)benzamide]
EC90 (Chikungunya virus; [3]): > 10 µM
CC50 [1]: > 30 µM

COc1cc2c(cc1NC(=O)c1cn(C)cn1)CCCCC2 [Compound 32, N-(3-methoxy-6,7,8,9-tetrahydro-5H-benzo[7]annulen-2-yl)-1-methyl-1H-imidazole-4-carboxamide]
EC90 (Chikungunya virus; [3]): 55.6 µM
CC50 [1]: > 30 µM

COc1cc2c(cc1NC(=O)c1ccc(OC(F)(F)F)cc1)CCCCC2 [Compound 72, N-(3-Methoxy-6,7,8,9-tetrahydro-5H-benzo[7]annulen-2-yl)-4-(trifluoromethoxy)benzamide]
EC90 (Chikungunya virus; [3]): 3.3 µM
CC50 [1]: > 30 µM

COc1cc2c(cc1NC(=O)c1ccc(C(C)(C)C)s1)CCCCC2 [Compound 38, 5-(tert-Butyl)-N-(3-methoxy-6,7,8,9-tetrahydro-5H-benzo[7]annulen-2-yl)thiophene-2-carboxamide]
EC90 (Chikungunya virus; [3]): 3.1 µM
CC50 [1]: 32 µM

COc1cc2c(cc1NC(=O)c1ccc(F)cc1)CCCCC2 [Compound 78, 4-Fluoro-N-(3-methoxy-6,7,8,9-tetrahydro-5H-benzo[7]annulen-2-yl)benzamide]
EC90 (Chikungunya virus; [3]): > 10 µM
CC50 [1]: > 30 µM

CC(C)(C)c1ccc(C(=O)Nc2cc3c(cc2O)CCCCC3)cc1 [Compound 15, 4-(tert-butyl)-N-(3-hydroxy-6,7,8,9-tetrahydro-5H-benzo[7]annulen-2-yl)benzamide]
EC90 (Chikungunya virus; [3]): 0.4 µM
CC50 [1]: > 30 µM

COc1cc2c(cc1NC(=O)c1c[nH]nc1C)CCCCC2 [Compound 69, N-(3-methoxy-6,7,8,9-tetrahydro-5H-benzo[7]annulen-2-yl)-3-methyl-1H-pyrazole-4-carboxamide]
EC90 (Chikungunya virus; [3]): 3.1 µM
CC50 [1]: > 30 µM

COc1cc2c(cc1NC(=O)c1ccc(C3(C(F)(F)F)CC3)cc1)CCCCC2 [Compound 51, N-(3-methoxy-6,7,8,9-tetrahydro-5H-benzo[7]annulen-2-yl)-4-(1-(trifluoromethyl)cyclopropyl)benzamide]
EC90 (Chikungunya virus; [3]): 1.3 µM
CC50 [1]: > 30 µM

COc1cc2c(cc1NC(=O)c1ccc(C(=O)O)cc1)CCCCC2 [Compound 55]
EC90 (Chikungunya virus; [3]): > 10 µM
CC50 [1]: > 30 µM

COc1cc2c(cc1NC(=O)c1oc3ccccc3c1C)CCCCC2 [Compound 79, N-(3-methoxy-6,7,8,9-tetrahydro-5H-benzo[7]annulen-2-yl)-3-methylbenzofuran-2-carboxamide]
EC90 (Chikungunya virus; [3]): > 10 µM
CC50 [1]: > 30 µM

COc1cc2c(cc1NC(=O)c1ccc(N(C)C)cc1)CCCCC2 [Compound 76, 4-(Dimethylamino)-N-(3-methoxy-6,7,8,9-tetrahydro-5H-benzo[7]annulen-2-yl)benzamide]
EC90 (Chikungunya virus; [3]): > 10 µM
CC50 [1]: > 30 µM
